Numbers after ± are expanded uncertainties.
Conditions: Fluid (supercritical or subcritical phases), Bellows volumetry

Work on `CCC` [propane] yielded a mass density (280 K, 581.4 kPa) of 519.39 ± 0.94 kg/m3, a mass density (280 K, 604.8 kPa) of 519.45 ± 0.94 kg/m3 and a mass density (280 K, 628.1 kPa) of 519.49 ± 0.96 kg/m3. The mass density (280 K, 651.4 kPa) was 519.57 ± 0.97 kg/m3, the mass density (280 K, 674.7 kPa) was 519.62 ± 0.97 kg/m3 and the mass density (280 K, 698 kPa) was 519.69 ± 0.94 kg/m3. It also gave a mass density (280 K, 721.4 kPa) of 519.75 ± 0.94 kg/m3, a mass density (300 K, 1006 kPa) of 489.83 ± 0.88 kg/m3 and a mass density (300 K, 1029.4 kPa) of 489.89 ± 0.88 kg/m3. The mass density (300 K, 1052.6 kPa) was 489.98 ± 0.88 kg/m3, the mass density (300 K, 1075.9 kPa) was 490.05 ± 0.88 kg/m3 and the mass density (300 K, 1099.3 kPa) was 490.1 ± 0.88 kg/m3. For the same molecule, the mass density (300 K, 1122.6 kPa) was 490.2 ± 0.9 kg/m3, the mass density (300 K, 1145.9 kPa) was 490.3 ± 0.88 kg/m3 and the mass density (320 K, 1611.1 kPa) was 455.49 ± 0.82 kg/m3. It also gave a mass density (320 K, 1634.4 kPa) of 455.61 ± 0.82 kg/m3, a mass density (320 K, 1657.6 kPa) of 455.75 ± 0.82 kg/m3 and a mass density (320 K, 1680.9 kPa) of 455.88 ± 0.84 kg/m3. The mass density (320 K, 1704.2 kPa) was 455.99 ± 0.84 kg/m3, the mass density (320 K, 1727.5 kPa) was 456.09 ± 0.82 kg/m3 and the mass density (320 K, 1750.7 kPa) was 456.24 ± 0.82 kg/m3. The mass density (340 K, 2447.1 kPa) was 412.74 ± 0.74 kg/m3, the mass density (340 K, 2470.3 kPa) was 412.98 ± 0.74 kg/m3 and the mass density (340 K, 2493.4 kPa) was 413.23 ± 0.74 kg/m3. For the same molecule, the mass density (340 K, 2516.6 kPa) was 413.48 ± 0.76 kg/m3, the mass density (340 K, 2539.8 kPa) was 413.66 ± 0.76 kg/m3 and the mass density (340 K, 2563 kPa) was 413.88 ± 0.75 kg/m3. The mass density (340 K, 2586.2 kPa) was 414.08 ± 0.74 kg/m3, the mass density (360 K, 3558 kPa) was 346.61 ± 0.64 kg/m3 and the mass density (360 K, 3558.8 kPa) was 346.43 ± 0.64 kg/m3. For the same molecule, the mass density (360 K, 3566.8 kPa) was 346.83 ± 0.63 kg/m3, the mass density (360 K, 3569.1 kPa) was 347.17 ± 0.63 kg/m3 and the mass density (360 K, 3569.9 kPa) was 346.97 ± 0.64 kg/m3. For the same molecule, the mass density (360 K, 3580.3 kPa) was 347.61 ± 0.63 kg/m3, the mass density (360 K, 3591.6 kPa) was 348.04 ± 0.63 kg/m3 and the mass density (360 K, 3592.2 kPa) was 347.94 ± 0.63 kg/m3. It also gave a mass density (360 K, 3602.8 kPa) of 348.46 ± 0.64 kg/m3, a mass density (360 K, 3614 kPa) of 348.96 ± 0.69 kg/m3 and a mass density (360 K, 3614.5 kPa) of 348.91 ± 0.63 kg/m3. For the same molecule, the mass density (360 K, 3622.6 kPa) was 349.31 ± 0.63 kg/m3, the mass density (360 K, 3625.2 kPa) was 349.4 ± 0.63 kg/m3 and the mass density (360 K, 3636.5 kPa) was 349.82 ± 0.71 kg/m3. It also gave a mass density (360 K, 3636.9 kPa) of 349.82 ± 0.63 kg/m3, a mass density (360 K, 3647.8 kPa) of 350.25 ± 0.65 kg/m3 and a mass density (360 K, 3659 kPa) of 350.7 ± 0.65 kg/m3. For the same molecule, the mass density (360 K, 3659.4 kPa) was 350.7 ± 0.65 kg/m3, the mass density (360 K, 3670.3 kPa) was 351.13 ± 0.65 kg/m3 and the mass density (360 K, 3678.7 kPa) was 351.52 ± 0.65 kg/m3. It also gave a mass density (360 K, 3681.8 kPa) of 351.59 ± 0.65 kg/m3, a mass density (360 K, 3704.3 kPa) of 352.44 ± 0.8 kg/m3 and a mass density (360 K, 3726.8 kPa) of 353.19 ± 0.65 kg/m3. It also gave a mass density (365 K, 3897.8 kPa) of 317.84 ± 0.66 kg/m3, a mass density (365 K, 3903 kPa) of 318.4 ± 0.65 kg/m3 and a mass density (365 K, 3923.7 kPa) of 320.49 ± 0.64 kg/m3. For the same molecule, the mass density (365 K, 3944.7 kPa) was 322.39 ± 0.63 kg/m3, the mass density (365 K, 3965.9 kPa) was 324.14 ± 0.63 kg/m3 and the mass density (365 K, 3987.2 kPa) was 325.86 ± 0.62 kg/m3. For the same molecule, the mass density (365 K, 4008.7 kPa) was 327.39 ± 0.61 kg/m3 and the mass density (365 K, 4030.4 kPa) was 328.84 ± 0.63 kg/m3.
